From publication PMC8158687, “Xanthones Active against Multidrug Resistance and Virulence Mechanisms of Bacteria” (Antibiotics, 2021)

How the values were obtained:
[1] = system: Chromobacterium violaceum wild type 85 (wt85); assay: Quorum sensing inhibition assay (disk, pigment production); assay type: cell-based; details: read-out: Quorum Sensing Inhibition (mm) ± SD
Excerpt: (§1) The sensor strain Chromobacterium violaceum CV026 and the acyl-homoserine lactones (AHLs) producer strain Sphingomonas paucimobilis Ezf 10-17 (EZF) were inoculated as parallel lines, and the AHL producers, Chromobacterium violaceum wild type 85 (wt85) and Serratia marcescens AS-1 were inoculated as a single line.
(§2) For the QS tests, all the bacteria used were Gram-negative. The bacteria used were Chromobacterium violaceum wild type 85 (wt85), characterized by the AHL signal molecule-mediated production of the purple violacein pigment, capable of endogenous QS-signal molecule production (N-hexanoyl-L-HSL), C. violaceum CV026 (CV026), a Tn5 transposase-mutant, AHL-signal molecule indicator strain (produces purple violacein pigment in the presence of AHL), which is incapable of endogenous QS-signal molecule-production, but useful in the detection of external stimuli, Sphingomonas paucimobilis Ezf 10-17 (EZF), AHL-producing-strain (used with C. violaceum CV026), and Serratia marcescens AS-1, characterized by the AHL signal molecule-mediated production of the orange–red pigment prodigiosin (2-methyl-3-pentyl-6-methoxyprodigiosin), capable of endogenous QS-signal molecule production (N-hexanoyl-L-HSL), were applied.
(§3) The QS inhibitory effect of the compounds was examined on the EZF and the sensor CV026 strains, on the wt85 strain, and on S. marcescens, for 4, 5, 11, 12, 16, 19, and 20. The method used was the parallel inoculation method, where pair combinations of the used sensor strain CV026 and the N-acyl-homoserine lactone (AHL)-producing strain EZF were inoculated directly onto the LB*-A agar surface in parallel, at an approximate distance of 5 mm from each other. S. marcescens AS-1 and wt85 were inoculated as a single line. Filter paper disks (7 mm in diameter) were placed on the center of the inoculated line(s) and impregnated with 8 µL of a solution of 10 mM of the compounds. […] The agar plates were incubated at room temperature (20 °C) for 24–48 h. The QS inhibition was accessed visually, through the inhibition of pigment production. The discolored, but intact, bacterial colonies were measured with a ruler.

Serratia marcescens AS-1 = assay: as above; assay type: cell-based; details: AS1, read-out: Quorum Sensing Inhibition (mm) ± SD
Excerpt: as §1, §2, §3

S. aureus 272123 [2] = assay: Inhibition of biofilm formation (crystal violet); assay type: cell-based, Staphylococcus aureus; details: half the MIC, or 100 µM if MIC >100 µM, 48 h, 30 °C
Experimental: The biofilm inhibition, presented in percentages (%), was calculated based on the mean of absorbance units.
The bacterial strains used were the Gram-positive S. aureus ATCC 25923 and S. aureus 272123. The detection of the biofilm formation was possible with the use of the dye crystal violet (CV; 0.1% v/v). The initial inoculum was incubated in TSB overnight, and then diluted to an OD600 of 0.1. Then, the bacterial suspension was added to 96-well microtiter plates and the compounds were added at half the MIC. […] The final volume in each well was 200 µL. […] The plates were incubated at 30 °C for 48 h, with gentle stirring (100 rpm). After this incubation period, the TSB medium was discarded, and the plates were washed with tap water to remove unattached cells. Afterwards, 200 µL of a 0.1% v/v CV solution were added to the wells and incubated for 15 min at room temperature. Then, the CV solution was removed from the wells, and the plates were washed again with tap water, and 200 µL of a 70% ethanolic solution were added to the wells. The biofilm formation was determined by measuring the OD600 using a Multiscan EX ELISA plate reader (Thermo Labsystems, Cheshire, WA, USA). The anti-biofilm effect of the compounds was expressed as the percentage (%) of decrease in biofilm formation.

S. aureus ATCC 29213 = assay: Inhibition of biofilm formation (crystal violet); assay type: cell-based, Staphylococcus aureus; details: half the MIC, or 100 µM if MIC >100 µM, 48 h, 30 °C
[3] = system: SE03 (acrA gene-inactivated Salmonella enterica serovar Typhimurium SL1344); assay: Efflux pump inhibition assay (real-time ethidium bromide accumulation); assay type: cell-based; details: compound 50 µM, EB 1 µg/mL, minute 60
Experimental: (§4) Salmonella enterica serovar Typhimurium SE03, was used as a Gram-negative bacterium. This strain has a deletion of the acrA gene, which was predicted with the least affinity for the compounds. The aim of these studies was to perform a first screening of these compounds and their ability to modulate the efflux of EB. […] The relative fluorescence index (RFI) was calculated based on the means of relative fluorescence units, depicted in Table 2.
(§5) Compounds 1–20 were evaluated for their ability to inhibit efflux pumps in SE03 and S. aureus 272123 strains, through the real-time fluorimetry, monitoring the intracellular accumulation of EB, an efflux pump substrate. This was determined by the automated method using a CLARIOstar Plus plate reader (BMG Labtech, Ortenberg, Germany). Reserpine and CCCP were applied at 25 µM as positive controls, and the solvent DMSO was applied at 1% v/v. The bacterial strains were incubated in an appropriate culture media (TSB—S. aureus 272123; LB-B—SE03) at 37 °C until they reached an optical density (OD) between 0.4 and 0.6 at λ = 600 nm. The culture was centrifuged at 13,000× g for 3 min, and the pellet washed and resuspended with PBS. The suspension was centrifuged again in the same conditions and resuspended in PBS. The compounds were applied at 50 µM in a solution of a non-toxic concentration of EB (1 µg/mL) in PBS. Then, 50 µL of this solution were transferred into a 96-well black microtiter plate (Greiner Bio-One Hungary Kft, Mosonmagyaróvár, Fertősor, Hungary), and 50 µL of bacterial suspension (OD600 0.4–0.6) were added to each well. The plates were placed into the CLARIOstar plate reader, and the fluorescence was monitored at excitation and emission wavelengths of 530 nm and 600 nm every minute for one hour on a real-time basis. From the real-time data, the activity of the compounds, namely the RFI of the last time point (minute 60) of the EB accumulation assay, was calculated according to the following formula:(1) RFI=RFtreated−RFuntreated/RFuntreated where RFtreated is the relative fluorescence (RF) at the last time point of EB accumulation curve in the presence of the compound, and RFuntreated is the RF at the last time point of the EB accumulation curve of the untreated control, having only the solvent (DMSO) control. The accumulation curves were designed using Microsoft Excel®.

S. aureus 272123 [4] = assay: as above; assay type: cell-based, Staphylococcus aureus; details: compound 50 µM, EB 1 µg/mL, minute 60
Experimental: Compounds 1–20 were assessed for their capability of modulating ethidium bromide (EB) accumulation on two resistant strains. […] However, norA is a core gene of the S. aureus as a species, which means that the NorA pump occurs in all S. aureus strains.
as §4, §5

[5] = system: EZF + CV026 (Sphingomonas paucimobilis Ezf 10-17 + Chromobacterium violaceum CV026); assay: Quorum sensing inhibition assay (parallel inoculation, pigment production); assay type: cell-based; details: read-out: Quorum Sensing Inhibition (mm) ± SD
Excerpt: as §1, §2, §3

Cytotoxicity assay (MTT) = assay type: cell-based, mouse; details: mouse, NIH/3T3 mouse fibroblast cells, 24 h, MTT, read-out: Cytotoxicity IC50 (µM) ± SD
Experimental: In order to apply efflux pump inhibitors to treat patients, several issues should be addressed.
Mouse fibroblasts (NIH/3T3, ATCC CRL-1658TM) were cultivated in DMEM (Gibco 52100-039) and supplemented with 10% heat-inactivated fetal bovine serum (Biowest, VWR International Kft, Debrecen, Hungary), 2 mM of L-glutamine, 1 mM Na pyruvate, 100 U/L and 10 mg/L penicillin/streptomycin mixture (Sigma-Aldrich Chemie GmbH, Steinheim, Germany), respectively, and 0.1% nystatin (8.3 g/L in ethylene glycol). The adherent cells were detached using a combination of 0.25% Trypsin–Versene (EDTA) solution for 5 min at 37 °C. Before each cytotoxicity assay using this cell line, cells were seeded in untreated 96-well flat-bottom microtiter plates, following a 4-h incubation period in a humidified atmosphere (5% CO2, 95% air) at 37 °C [60].
The cytotoxicity of 4, 12, 16, 19, and 20 was assessed in NIH/3T3 cells. The compounds were added to the cells distributed into 96-well flat bottom microtiter plates at concentrations of […] and initially incubated for 24 h, after which a solution of MTT in PBS was added to each well and incubated for another 4 h. The concentrations used were the same as in the MIC assay. After this, 100 μL of SDS (10% in a 0.01 M HCl solution) were added to each well and incubated overnight at 37 °C. Doxorubicin was used as the positive control. Cell growth was determined in quadruplicate by measuring OD at λ = 540 nm (reference 630 nm) in a Multiscan EX ELISA reader (Thermo Labsystems, Cheshire, WA, USA). The percentage of inhibition of cell growth was determined according to the equation: (2) 100−(ODsample−ODmedium control/ODcell control−ODmedium control)×100

Q: With `Cc1c(O)cc2oc3ccccc3c(=O)c2c1O` [Compound 5] as the compound, how does the zone of inhibition at 10000 µM [1] read?
A: 0 mm

Q: And the zone of inhibition at 10000 µM (Serratia marcescens AS-1)?
A: 0 mm

Q: What about the “Inhibition of Biofilm Formation (%) ± SD” value (S. aureus 272123 [2]) of the same compound?
A: 61.62 ± 16.51 ^3%

Q: And the “Inhibition of Biofilm Formation (%) ± SD” value (S. aureus ATCC 29213)?
A: 0 ^1%

Q: What about the “RFI ± SD (relative fluorescence index)” value [3] of the same compound?
A: 1.74 ± 0.22 ^7

Q: What about the “RFI ± SD (relative fluorescence index)” value (S. aureus 272123 [4]) of the same compound?
A: 0.16 ± 0.08 ^2

Q: What about the zone of inhibition at 10000 µM [5] of the same compound?
A: 0 mm

Q: Which results are given for `COc1cccc2oc3ccccc3c(=O)c12` [Compound 11]?
A: zone of inhibition at 10000 µM [1]: 0 mm; zone of inhibition at 10000 µM (Serratia marcescens AS-1): 0 mm; Inhibition of Biofilm Formation (%) ± SD (S. aureus 272123 [2]): 39.95 ± 7.66 ^3%; Inhibition of Biofilm Formation (%) ± SD (S. aureus ATCC 29213): 0 ^1%; zone of inhibition at 10000 µM [5]: 0 mm

Q: For `COC(=O)c1cc(OC)c(OC)c2oc3cc(OC)ccc3c(=O)c12` [Compound 17], which “RFI ± SD (relative fluorescence index)” value [3] is on record?
A: −0.29 ± 0.08 ^10

Q: And the “RFI ± SD (relative fluorescence index)” value (S. aureus 272123 [4])?
A: −0.34 ± 0.02 ^5

Q: For `Cc1cc(O)c(O)c2oc3ccccc3c(=O)c12` [Compound 6], which “RFI ± SD (relative fluorescence index)” value [3] is on record?
A: −0.91 ± 0.01 ^9

Q: What about the “RFI ± SD (relative fluorescence index)” value (S. aureus 272123 [4]) of the same compound?
A: −0.91 ± 0.01 ^4

Q: For `COc1cc(CNCc2ccc(Cl)cc2)c2c(=O)c3ccccc3oc2c1OC` [Compound 18], which “RFI ± SD (relative fluorescence index)” value [3] is on record?
A: 0.04 ± 0.04 ^8

Q: And the “RFI ± SD (relative fluorescence index)” value (S. aureus 272123 [4])?
A: −0.01 ± 0.04 ^3

Q: Which IC50 at 24 h (Cytotoxicity assay (MTT)) does the source give for `COc1cccc2c1C(=O)c1c(O)c3c(c(O)c1C2=O)C[C@@](O)(C(=O)CO)C[C@@H]3O[C@H]1C[C@H](N)[C@H](O)[C@H](C)O1` [Doxorubicin, reference compound] here?
A: 12.1 ± 0.81 µM

Q: What does the source list for `O=c1c2ccccc2oc2ccc(O)c(O)c12` [Compound 3]?
A: RFI ± SD (relative fluorescence index) [3]: 0.23 ± 0.04 ^8; RFI ± SD (relative fluorescence index) (S. aureus 272123 [4]): −0.05 ± 0.06 ^3

Q: With `COc1c(Cl)c(C)c2c(=O)c3ccccc3oc2c1OC` [Compound 9] as the compound, how does the “RFI ± SD (relative fluorescence index)” value [3] read?
A: 0.05 ± 0.09 ^9

Q: And the “RFI ± SD (relative fluorescence index)” value (S. aureus 272123 [4])?
A: −0.04 ± 0.26 ^4

Q: Which zone of inhibition at 10000 µM [1] does the source give for `CC(CN1c2ccccc2Sc2ccccc21)N(C)C` (centres unmarked) [PMZ, promethazine, reference compound] here?
A: 41 ± 0.5 mm

Q: And the zone of inhibition at 10000 µM (Serratia marcescens AS-1)?
A: 18 ± 0.8 mm

Q: What about the zone of inhibition at 10000 µM [5] of the same compound?
A: 40 ± 0.1 mm
